Experimental data published in publication PMC9964746, “Mechanism of Action and Structure–Activity Relationships of Tetracyclic Small Molecules Acting as Universal Positive Allosteric Modulators of the Cholecystokinin Receptor” (Membranes, 2023).
“And” between values parts separate entries of the source, which are not always exact repeats. Equal entries are not always repeated.

Legend:
Format in all cases: cell-based
CCK1R [1] = molecular target: T1, CCK1R (Homo sapiens, UniProt P32238); experiment: IP-One accumulation TR-FRET assay, PAM format, HEK-293 CCK1R cells; set-up: expressed in transfected cells; host or cells: HEK-293; conditions: HEK-293 CCK1R cells; for Emax: HEK293, relative to CCK control; for Emax / CCK1R PAM (IP-One) Score (activity score = normalized Emax × pEC50): PAM format; for Emax / EC50: average ± SD; for EC50: PAM format with EC20 CCK
T1 sequence (P32238 1-428): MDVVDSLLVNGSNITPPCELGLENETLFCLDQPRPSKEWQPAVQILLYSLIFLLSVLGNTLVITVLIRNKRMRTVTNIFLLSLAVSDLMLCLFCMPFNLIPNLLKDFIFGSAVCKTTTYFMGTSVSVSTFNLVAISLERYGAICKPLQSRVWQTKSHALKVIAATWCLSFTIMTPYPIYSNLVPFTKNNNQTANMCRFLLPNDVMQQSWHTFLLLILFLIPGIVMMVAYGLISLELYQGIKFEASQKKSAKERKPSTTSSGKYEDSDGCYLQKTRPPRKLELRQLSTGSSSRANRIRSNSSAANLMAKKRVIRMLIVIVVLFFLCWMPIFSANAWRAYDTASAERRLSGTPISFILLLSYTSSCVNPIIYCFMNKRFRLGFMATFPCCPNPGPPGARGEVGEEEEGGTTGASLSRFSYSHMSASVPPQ
Procedure: (§1) For structure–activity relationship studies, we performed myo-inositol-1-phosphate (IP-One) accumulation assays with TR-FRET technology applied to the HEK-293 cell line overexpressing CCK1Rs, as we had described in our high throughput screening effort. In brief, thawed cryopreserved cell stocks were re-suspended in IP-One assay media consisting of phenol-red free DMEM (Corning, Corning, NY, USA, #17-205-CV) with 10% FBS, 1% penicillin (10,000 units)/streptomycin (10 mg) (Pen/Strep, Thermo Fisher Scientific, Waltham, MA, USA, Gibco #15140122), and 1% L-glutamine (200 mM) (Gibco #25030081) and diluted to required cell densities. Then, the cell suspension was dispensed into a 1536-well tissue culture microplate (Corning, #3727), and the plate was incubated overnight at 37 °C and 5% CO^2. After 16–20 h, DMSO or compounds were added with an Echo liquid handler (Labcyte, San Jose, CA, USA), resulting in a top final compound concentration of 50 µM diluted 2-fold for 16-point dose–responses. For the positive allosteric modulator (PAM) format, orthosteric stimulator (CCK) dilutions for control wells were prepared in assay media containing 150 mM lithium chloride (LiCl, 50 mM final, Sigma-Aldrich, St Louis, MO, USA, #L7026). After a 30 min incubation of test compounds at 37 °C and 5% CO2, orthosteric stimulator dilutions (for PAM format) or equivalent dilutions of DMSO (for agonist format) were added to designated wells using BioRaptr (Beckman Coulter, Brea, CA, USA). In addition, CCK control ligand dilutions were included on each test plate. After that, the plate was incubated for 1 h at 37 °C and 5% CO^2 and equilibrated to room temperature. Detection reagents from the IP-One Gq detection kit from Cisbio (Cisbio US Inc., Bedford, MA, USA, #62IPAPEJ) were added, and after 1 h at RT, IP-One content was measured with a PHERAstar FSX microplate reader (BMG Labtech, Ortenberg, Germany). Control ligand dose–responses were analyzed using GraphPad Prism 9.3.1 (San Diego, CA, USA) to validate adequate control and test well concentrations for positive allosteric modulation (PAM) and agonist formats. Dose–response curves were performed as 16-point 2-fold dilutions in duplicates in at least three independent experiments. Large data sets were uploaded and analyzed with CBIS (Chemical and Biology Information System software, ChemInnovation Software, Inc., San Diego, CA, USA). Further data analysis for detailed SAR studies was conducted using the D360 software (Certara).
(§2) The potency and efficacy data for these compounds were used to calculate their activity scores using the following formula: Activity Score = normalized Emax × pEC50. Normalized Emax represents the efficacy of the compound as a fractional response relative to that of the CCK control ligand. pEC50 represents the positive logarithmic value of compound EC50 concentrations in (M).

CCK1R [2] = molecular target: T1, CCK1R; experiment: IP-One accumulation TR-FRET assay, agonist format, HEK-293 CCK1R cells; set-up: expressed in transfected cells; host or cells: HEK-293; conditions: for Emax: HEK293, relative to CCK control, read-out: CCK1R Ago (IP-One) Emax; for Emax / EC50: average ± SD; for EC50: read-out: CCK1R Ago (IP-One) EC50
Procedure: as §1, §2

[3] = molecular target: T2, vasopressin-2 receptor (AVP2R) (Homo sapiens, UniProt P30518); experiment: AVP2R cAMP HTRF accumulation assay; conditions: CHO-K1 AVP2R cells; for AVP2R PAM (cAMP) Score (activity score = normalized Emax × pEC50): PAM format; for EC50 / Emax: PAM format with vasopressin, original hits: agonist and PAM data combined, average ± SD
T2 construct: expressed in transfected cells; host or cells: CHO-K1 (PAM format); HEK-293 (agonist format)
T2 sequence (P30518 whole entry): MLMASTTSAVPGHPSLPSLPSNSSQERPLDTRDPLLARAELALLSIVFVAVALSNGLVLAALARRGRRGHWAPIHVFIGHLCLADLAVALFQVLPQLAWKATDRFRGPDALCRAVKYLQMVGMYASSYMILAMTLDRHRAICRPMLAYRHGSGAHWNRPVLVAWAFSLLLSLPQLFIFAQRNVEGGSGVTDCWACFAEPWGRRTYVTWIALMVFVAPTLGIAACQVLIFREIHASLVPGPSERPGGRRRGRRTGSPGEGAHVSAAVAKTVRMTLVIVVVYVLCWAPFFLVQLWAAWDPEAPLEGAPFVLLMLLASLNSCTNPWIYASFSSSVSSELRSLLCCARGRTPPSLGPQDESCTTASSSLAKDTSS
Procedure: Possible off-target biological effects. […] Here, we tested them at the vasopressin-2 receptor (AVP2R), representing a class A GPCR structurally related to CCK1R, which is coupled to Gs. The activity at AVP2R was tested using AVP2R-overexpressing CHO-K1 (PAM format) or HEK-293 (agonist format) cells, stimulating the cells with vasopressin. Original hits were tested in both agonist and PAM formats. Since all recognized compound responses were present in both formats, we continued to screen analogs in only the PAM format (also able to capture agonist effects) in CHO-K1 AVP2R cells for potential enhanced sensitivity. The dose–response data sets for original hits were combined, as the PAM and agonist effects were indistinguishable. In brief, arginine vasopressin (AVP) orthosteric stimulator dilutions and ligand and compound dose–response titrations in DMSO were transferred onto a 1536-well plate (Corning #3725) using an Echo liquid handler (Labcyte). Thawed cryopreserved cell stocks were diluted in stimulation buffer consisting of HBSS (Hank’s Balanced Salt Solution with Ca^2+ and Mg^2+, Gibco #24020117), 5 mM HEPES (hydroxyethyl piperazineethanesulfonic acid), 0.5 mM IBMX (3-isobutyl-1-methylxanthine, Sigma-Aldrich), and 0.075% BSA (7.5% DTPA-purified bovine serum albumin, PerkinElmer). The resulting cell suspension was added to the microplate and incubated with test compounds at room temperature for 30 min. Then, the detection reagents from the Cisbio cAMP Gs Dynamic HTRF detection kit were added. The plate was kept at room temperature for 30 min and read on a PHERAstar FSX microplate reader. Dose–response curves were performed as 16-point 2-fold dilutions in duplicate in at least two independent experiments.

Structure (SMILES) | Emax (CCK1R [1]) | CCK1R PAM (IP-One) Score (activity score = normalized Emax × pEC50) (CCK1R [1]) | EC50 (CCK1R [1]) | CCK1R Ago (IP-One) Score (activity score = normalized Emax × pEC50) (CCK1R [2]) | AVP2R PAM (cAMP) Score (activity score = normalized Emax × pEC50) [3] | EC50 [3] | Emax [3] | Emax (CCK1R [2]) | EC50 (CCK1R [2])
CCCc1nc2sc3c(NCCN4CCOCC4)ncnc3c2c2c1CCCC2 [CMP-8] | 53 ± 1% | 2.34 | 37.8 ± 3.9 µM | 0 | 2.3 and 2.31 | 15.7 ± 8.4 µM | 48 ± 12% | – | –
CCN(CC)CCNc1ncnc2c1sc1nc(-c3ccccc3)c3c(c12)CCCC3 [CMP-11] | 45 ± 6% | 2.3 and 2.27 | 9.1 ± 4.8 µM | 1.0 and 0.96 | 2.4 and 2.44 | 3.2 ± 1.1 µM | 44 ± 8% | 21 ± 2% | 27.1 ± 15.3 µM
CC(C)Cc1nc2oc3c(NCCCN(C)C)ncnc3c2c2c1CCC2 [CMP-13] | 52 ± 36% | 2.2 and 2.23 | 11.2 ± 4.2 µM | 0 | 1.4 and 1.35 | 12.6 ± 7.9 µM | 28 ± 14% | – | –
CN(C)CCNc1ncnc2c1sc1nc(-c3ccccc3)c3c(c12)CCCC3 [CMP-14] | 44 ± 10% | 2.17 | 8.9 ± 1.7 µM | 0.72 | 3.0 and 2.97 | 4.7 ± 4.1 µM | 56 ± 33% | 17 ± 5% | 29.7 ± 8 µM
CC(C)Cc1nc2oc3c(N4CCNCC4)ncnc3c2c2c1CCCC2 [CMP-15] | 43 ± 3% | 2.04 | 17.8 ± 6.2 µM | 0 | 2.97 | 7.3 ± 3.3 µM | 58 ± 15% | – | –
CCCc1nc2sc3c(NCCCN(C)C)ncnc3c2c2c1CCCC2 [CMP-18] | 43 ± 21% | 2.0 and 1.96 | 12.7 ± 5.5 µM | 0 | 2.0 and 1.99 | 11.8 ± 14 µM | 40 ± 17% | – | –
CC(C)Cc1nc2oc3c(NCCN(C)C)ncnc3c2c2c1CCC2 [CMP-21] | 45 ± 23% | 1.9 | 23.8 ± 10.5 µM | 0 | 1.7 and 1.74 | 22.8 ± 3.8 µM | 37 ± 4% | – | –
NCCNc1ncnc2c1sc1nc(N3CCCCC3)c3c(c12)CCCC3 [CMP-22] | 39 ± 11% | 1.9 and 1.87 | 12.2 ± 4.6 µM | 2.76 | 2.9 and 2.92 | 2.7 ± 0.7 µM | 52 ± 4% | 60 ± 4.5% | 26.9 ± 1.1 µM
